Measured values from ChEMBL document CHEMBL1134724, “Novel (4-piperazin-1-ylquinolin-6-yl) arylsulfonamides with high affinity and selectivity for the 5-HT(6) receptor” (Bioorg Med Chem Lett, 2001).
pKi: −log10 of the molar value.

How the values were obtained:
[1] = molecular target: T1, 5-hydroxytryptamine receptor 6 (Homo sapiens, UniProt P50406); experiment: Binding affinity against human 5-hydroxytryptamine 6 receptor
[2] = molecular target: T2, 5-hydroxytryptamine receptor 1A (Homo sapiens, UniProt P08908); experiment: Binding affinity to human cloned 5-hydroxytryptamine 1A receptor in HEK 293 cells using [3H]-8-OH- DPAT as radioligand; assay type: cell-based, HEK293
T2 sequence (P08908 whole entry): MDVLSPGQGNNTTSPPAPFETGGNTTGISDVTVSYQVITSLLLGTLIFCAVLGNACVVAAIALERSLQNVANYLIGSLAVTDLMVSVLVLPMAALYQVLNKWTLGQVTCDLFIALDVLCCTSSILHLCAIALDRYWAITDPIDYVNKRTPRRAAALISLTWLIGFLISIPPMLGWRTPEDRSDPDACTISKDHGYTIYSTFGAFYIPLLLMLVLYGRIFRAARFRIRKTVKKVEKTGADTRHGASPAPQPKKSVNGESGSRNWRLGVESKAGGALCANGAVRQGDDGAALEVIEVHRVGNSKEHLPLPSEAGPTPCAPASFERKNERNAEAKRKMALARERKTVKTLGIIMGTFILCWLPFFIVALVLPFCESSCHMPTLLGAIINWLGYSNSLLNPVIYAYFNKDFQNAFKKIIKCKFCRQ

[3] = molecular target: 5-hydroxytryptamine receptor 1B (Homo sapiens, UniProt P28222); experiment: Binding affinity to human cloned 5-hydroxytryptamine 1B receptor in CHO cells using [3H]5-HT as radioligand; assay type: cell-based
[4] = molecular target: 5-hydroxytryptamine receptor 1D (Homo sapiens, UniProt P28221); experiment: Binding affinity to human cloned 5-hydroxytryptamine 1D receptor in CHO cells using [3H]5-HT as radioligand; assay type: cell-based
[5] = molecular target: 5-hydroxytryptamine receptor 2A (Homo sapiens, UniProt P28223); experiment: Binding affinity to human cloned 5-hydroxytryptamine 2A receptor in HEK 293 cells using [3H]- ketanserin as radioligand; assay type: cell-based, HEK293
[6] = molecular target: T3, 5-hydroxytryptamine receptor 2C (Homo sapiens, UniProt P28335); experiment: Binding affinity to human cloned 5-hydroxytryptamine 2C receptor in HEK 293 cells using [3H]- mesulergine as radioligand; assay type: cell-based, HEK293
T3 sequence (P28335 whole entry): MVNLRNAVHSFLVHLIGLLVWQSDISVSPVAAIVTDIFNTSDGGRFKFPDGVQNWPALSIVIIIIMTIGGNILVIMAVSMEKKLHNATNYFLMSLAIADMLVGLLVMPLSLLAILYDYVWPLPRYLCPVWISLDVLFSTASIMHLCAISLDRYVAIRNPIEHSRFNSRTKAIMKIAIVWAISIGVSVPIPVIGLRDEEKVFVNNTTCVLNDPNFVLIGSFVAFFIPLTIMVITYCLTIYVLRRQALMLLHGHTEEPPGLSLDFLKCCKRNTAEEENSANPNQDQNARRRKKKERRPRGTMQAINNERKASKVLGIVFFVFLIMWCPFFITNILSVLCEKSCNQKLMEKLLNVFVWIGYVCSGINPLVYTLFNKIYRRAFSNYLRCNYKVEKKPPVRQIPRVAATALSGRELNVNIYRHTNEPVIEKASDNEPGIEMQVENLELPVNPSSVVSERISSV

[7] = molecular target: 5-hydroxytryptamine receptor 2B (Homo sapiens, UniProt P41595); experiment: Binding affinity to human cloned 5-HT2B receptor in HEK 293 cells using [3H]- -5-HT as radioligand; assay type: cell-based, HEK293
[8] = molecular target: 5-hydroxytryptamine receptor 7 (Homo sapiens, UniProt P34969); experiment: Binding affinity to human cloned 5-hydroxytryptamine 7 receptor in HEK 293 cells using [3H]-5-CT as radioligand; assay type: cell-based, HEK293
[9] = molecular target: T1, 5-hydroxytryptamine receptor 6; experiment: Binding affinity to human cloned 5-HT6 receptor in HeLa cells using [3H]- LSD as radioligand; assay type: cell-based
D(2) dopamine receptor = D(2) dopamine receptor (Homo sapiens, UniProt P14416); experiment: Binding affinity to human cloned Dopamine receptor D2 in CHO cells using [125I]- iodosulpride as radioligand; assay type: cell-based
D(3) dopamine receptor = D(3) dopamine receptor (Homo sapiens, UniProt P35462); experiment: Binding affinity to human cloned Dopamine receptor D3 in CHO cells using [125I]- iodosulpride as radioligand; assay type: cell-based
[10] = Selectivity ratio as antilogarithm of smallest difference between the pKi value at 5-HT6 receptor and range of comparator receptors
[11] = molecular target: T1, 5-hydroxytryptamine receptor 6; experiment: Binding affinity to human cloned 5-hydroxytryptamine 6 receptor in HeLa cells using [3H]- LSD as radioligand; assay type: cell-based

Sequence of D(2) dopamine receptor (P14416 whole entry): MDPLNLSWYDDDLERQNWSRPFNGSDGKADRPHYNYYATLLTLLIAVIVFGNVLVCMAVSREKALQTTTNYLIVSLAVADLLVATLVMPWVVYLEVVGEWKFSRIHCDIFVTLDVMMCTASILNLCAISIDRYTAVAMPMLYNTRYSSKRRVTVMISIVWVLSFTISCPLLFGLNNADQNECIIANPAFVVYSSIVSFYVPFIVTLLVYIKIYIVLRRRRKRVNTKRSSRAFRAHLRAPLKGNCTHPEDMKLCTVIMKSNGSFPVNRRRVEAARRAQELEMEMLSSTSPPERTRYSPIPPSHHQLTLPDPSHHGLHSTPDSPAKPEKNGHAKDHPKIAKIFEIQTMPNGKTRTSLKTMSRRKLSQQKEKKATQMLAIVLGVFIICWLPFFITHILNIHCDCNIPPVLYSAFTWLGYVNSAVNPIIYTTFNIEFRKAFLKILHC
T1 sequence (P50406 whole entry): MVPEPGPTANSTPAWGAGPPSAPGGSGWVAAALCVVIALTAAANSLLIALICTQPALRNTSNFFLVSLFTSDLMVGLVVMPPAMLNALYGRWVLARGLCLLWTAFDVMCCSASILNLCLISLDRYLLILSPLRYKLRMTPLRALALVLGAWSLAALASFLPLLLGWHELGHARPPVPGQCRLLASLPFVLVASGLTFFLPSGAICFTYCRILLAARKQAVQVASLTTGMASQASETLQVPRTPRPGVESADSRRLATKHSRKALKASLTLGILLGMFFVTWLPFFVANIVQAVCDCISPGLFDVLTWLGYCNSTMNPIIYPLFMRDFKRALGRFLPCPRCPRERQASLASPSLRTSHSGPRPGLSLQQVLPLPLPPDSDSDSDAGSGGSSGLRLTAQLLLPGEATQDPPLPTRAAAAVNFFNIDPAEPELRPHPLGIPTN
Sequence of 5-hydroxytryptamine receptor 1D (P28221 whole entry): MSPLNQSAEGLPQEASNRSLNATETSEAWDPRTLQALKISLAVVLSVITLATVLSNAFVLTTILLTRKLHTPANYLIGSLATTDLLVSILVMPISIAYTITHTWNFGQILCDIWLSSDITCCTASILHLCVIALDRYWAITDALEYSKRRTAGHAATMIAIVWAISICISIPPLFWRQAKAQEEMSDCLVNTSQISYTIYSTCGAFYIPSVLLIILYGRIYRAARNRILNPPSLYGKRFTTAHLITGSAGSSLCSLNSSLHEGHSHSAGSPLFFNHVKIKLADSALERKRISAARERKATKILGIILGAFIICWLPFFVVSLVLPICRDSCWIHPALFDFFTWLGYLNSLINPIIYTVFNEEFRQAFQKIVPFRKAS
Sequence of 5-hydroxytryptamine receptor 2A (P28223 whole entry): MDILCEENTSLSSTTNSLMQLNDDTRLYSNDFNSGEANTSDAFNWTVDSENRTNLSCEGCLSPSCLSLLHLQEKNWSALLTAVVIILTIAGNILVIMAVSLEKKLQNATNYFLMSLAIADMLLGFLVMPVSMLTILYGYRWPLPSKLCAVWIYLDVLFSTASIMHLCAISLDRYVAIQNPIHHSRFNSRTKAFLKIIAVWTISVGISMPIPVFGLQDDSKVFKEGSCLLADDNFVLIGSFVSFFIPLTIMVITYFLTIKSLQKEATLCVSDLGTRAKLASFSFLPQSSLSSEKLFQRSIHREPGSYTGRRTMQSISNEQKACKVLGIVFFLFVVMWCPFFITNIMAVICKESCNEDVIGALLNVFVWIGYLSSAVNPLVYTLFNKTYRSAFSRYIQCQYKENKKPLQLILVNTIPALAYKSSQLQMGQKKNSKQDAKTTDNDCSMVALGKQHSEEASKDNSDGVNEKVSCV
Sequence of 5-hydroxytryptamine receptor 2B (P41595 whole entry): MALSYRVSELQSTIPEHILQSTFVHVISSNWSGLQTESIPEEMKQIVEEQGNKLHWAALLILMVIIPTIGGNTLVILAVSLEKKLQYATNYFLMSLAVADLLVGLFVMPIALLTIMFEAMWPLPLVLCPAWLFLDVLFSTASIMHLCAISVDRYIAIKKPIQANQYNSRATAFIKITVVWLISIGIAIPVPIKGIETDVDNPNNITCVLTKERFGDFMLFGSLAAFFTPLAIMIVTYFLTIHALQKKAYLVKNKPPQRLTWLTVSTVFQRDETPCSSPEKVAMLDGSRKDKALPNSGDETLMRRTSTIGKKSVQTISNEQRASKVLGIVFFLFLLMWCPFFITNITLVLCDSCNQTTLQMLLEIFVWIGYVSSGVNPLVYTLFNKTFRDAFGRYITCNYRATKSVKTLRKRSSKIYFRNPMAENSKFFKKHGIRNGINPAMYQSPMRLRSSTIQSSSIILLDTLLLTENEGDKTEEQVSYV
Sequence of 5-hydroxytryptamine receptor 1B (P28222 whole entry): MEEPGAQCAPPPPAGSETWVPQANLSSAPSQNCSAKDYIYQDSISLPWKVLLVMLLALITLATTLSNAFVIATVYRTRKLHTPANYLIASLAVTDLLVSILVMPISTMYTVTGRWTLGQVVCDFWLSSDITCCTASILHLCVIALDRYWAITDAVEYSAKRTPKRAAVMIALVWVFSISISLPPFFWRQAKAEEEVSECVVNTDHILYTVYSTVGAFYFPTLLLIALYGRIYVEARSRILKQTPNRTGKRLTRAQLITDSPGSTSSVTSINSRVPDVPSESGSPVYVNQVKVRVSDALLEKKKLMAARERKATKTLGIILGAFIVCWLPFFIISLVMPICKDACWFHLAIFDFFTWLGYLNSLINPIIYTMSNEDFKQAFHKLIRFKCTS
Sequence of 5-hydroxytryptamine receptor 7 (P34969 whole entry): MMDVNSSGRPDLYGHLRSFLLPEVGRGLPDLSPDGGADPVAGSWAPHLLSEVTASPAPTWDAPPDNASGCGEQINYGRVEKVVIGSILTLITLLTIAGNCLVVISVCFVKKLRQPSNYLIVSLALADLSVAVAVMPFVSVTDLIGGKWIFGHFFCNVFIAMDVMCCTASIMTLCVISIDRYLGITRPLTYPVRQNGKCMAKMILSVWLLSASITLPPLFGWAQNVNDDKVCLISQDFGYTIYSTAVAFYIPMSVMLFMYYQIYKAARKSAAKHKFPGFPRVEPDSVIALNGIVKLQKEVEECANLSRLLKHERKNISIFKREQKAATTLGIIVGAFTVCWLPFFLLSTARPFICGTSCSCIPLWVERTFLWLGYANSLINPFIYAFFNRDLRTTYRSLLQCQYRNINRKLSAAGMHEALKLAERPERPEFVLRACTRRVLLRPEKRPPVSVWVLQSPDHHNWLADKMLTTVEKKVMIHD
Sequence of D(3) dopamine receptor (P35462 whole entry): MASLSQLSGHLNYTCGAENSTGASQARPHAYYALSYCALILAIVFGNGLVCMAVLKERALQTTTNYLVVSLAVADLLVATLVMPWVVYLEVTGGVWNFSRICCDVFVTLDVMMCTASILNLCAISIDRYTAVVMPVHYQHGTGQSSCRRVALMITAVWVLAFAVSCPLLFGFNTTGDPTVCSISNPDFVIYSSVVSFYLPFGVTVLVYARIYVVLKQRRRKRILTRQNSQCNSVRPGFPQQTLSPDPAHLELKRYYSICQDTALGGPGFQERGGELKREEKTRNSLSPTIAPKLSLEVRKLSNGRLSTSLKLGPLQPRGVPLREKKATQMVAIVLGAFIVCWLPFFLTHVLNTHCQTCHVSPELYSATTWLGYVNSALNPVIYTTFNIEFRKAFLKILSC

| pKi [1] | pKi [2] | pKi [3] | pKi [4] | pKi [5] | pKi [6] | pKi [7] | pKi [8] | pKi [9] | pKi (D(2) dopamine receptor) | pKi (D(3) dopamine receptor) | Selectivity ratio [10] | pKi [11] | SMILES |
| --- | --- | --- | --- | --- | --- | --- | --- | --- | --- | --- | --- | --- | --- |
| 7.60 | – | – | – | – | – | – | – | – | – | – | – | – | O=S(=O)(Nc1ccc2nccc(N3CCNCC3)c2c1)c1cc(Cl)cc(Cl)c1 |
| 8.90 | 6.10 | 5.90 | 6.50 | < 5.70 | 5.60 | < 5.10 | < 5.30 | 8.90 | < 5.20 | < 6.00 | 250 | – | Cc1cc(N2CCNCC2)c2cc(NS(=O)(=O)c3sc4ccc(Cl)cc4c3C)ccc2n1 |
| 8.90 | 6.00 | 5.60 | 6.40 | < 5.60 | < 5.40 | < 5.20 | < 5.30 | 8.90 | < 5.50 | < 5.70 | 320 | – | Cc1c(S(=O)(=O)Nc2ccc3nccc(N4CCN[C@@H](C)C4)c3c2)sc2ccc(Cl)cc12 |
| 9.00 | 6.80 | 6.20 | 6.70 | 6.00 | < 5.60 | < 5.30 | 5.60 | 9.00 | < 5.30 | 5.60 | 160 | – | O=S(=O)(Nc1ccc2nccc(N3CCNCC3)c2c1)c1ccc2c(Cl)cccc2c1 |
| 7.70 | – | – | – | – | – | – | – | – | – | – | – | – | Cc1c(S(=O)(=O)Nc2ccc3nccc(N4CCN[C@H](C(C)C)C4)c3c2)sc2ccc(Cl)cc12 |
| 8.70 | – | – | – | – | – | – | – | – | – | – | 200 | – | Cc1sc2c(Cl)cc(Cl)cc2c1S(=O)(=O)Nc1ccc2nccc(N3CCNCC3)c2c1 |
| 8.80 | – | – | – | – | – | – | – | – | – | – | 100 | – | O=S(=O)(Nc1ccc2nccc(N3CCNCC3)c2c1)c1ccc(I)cc1 |
| 8.30 | – | – | – | – | – | – | – | – | – | – | 160 | – | Cc1c(S(=O)(=O)Nc2ccc3nccc(N4C[C@@H](C)N[C@@H](C)C4)c3c2)sc2ccc(Cl)cc12 |
| 8.10 | – | – | – | – | – | – | – | – | – | – | 40 | – | Cc1sc2cc(Cl)cc(Cl)c2c1S(=O)(=O)Nc1ccc2nccc(N3CCNCC3)c2c1 |
| 8.70 | 6.00 | 5.70 | 6.20 | < 5.60 | < 5.60 | < 5.30 | < 5.10 | 8.70 | < 5.00 | < 5.80 | 320 | – | Cc1c(S(=O)(=O)Nc2ccc3nccc(N4CCNCC4)c3c2)sc2ccc(Cl)cc12 |
| 9.00 | 6.60 | 6.30 | 6.40 | < 5.70 | 5.90 | 5.90 | 5.80 | 9.00 | < 5.40 | < 5.80 | 250 | – | Cc1sc2ccc(Cl)cc2c1S(=O)(=O)Nc1ccc2nccc(N3CCNCC3)c2c1 |
| 7.10 | – | – | – | – | – | – | – | – | – | – | – | – | Cc1c(S(=O)(=O)Nc2ccc3ncc(N4CCN(C)CC4)cc3c2)sc2ccc(Cl)cc12 |
| 9.20 | 6.10 | 5.80 | 5.90 | < 5.50 | < 5.70 | < 5.30 | < 5.00 | – | < 5.00 | < 5.30 | 1260 | 9.20 | CC(C)(C)c1ccc(S(=O)(=O)Nc2ccc3nccc(N4CCNCC4)c3c2)cc1 |
| 9.00 | 6.10 | 6.30 | 6.60 | 6.00 | < 5.30 | < 5.00 | 5.70 | 9.00 | < 5.10 | < 5.40 | 250 | – | Cc1c(S(=O)(=O)Nc2ccc3nccc(N4CCN(C)CC4)c3c2)sc2ccc(Cl)cc12 |
| 9.30 | 6.20 | 6.50 | 6.80 | 6.30 | – | < 5.10 | < 5.00 | 9.30 | < 5.30 | < 5.50 | 320 | – | O=S(=O)(Nc1ccc2nccc(N3CCNCC3)c2c1)c1ccc(-c2ccccc2)cc1 |
| 8.80 | – | – | – | – | – | – | – | – | – | – | 160 | – | CC(C)c1c(S(=O)(=O)Nc2ccc3nccc(N4CCNCC4)c3c2)sc2ccc(Cl)cc12 |
| 8.70 | – | – | – | – | – | – | – | – | – | – | 3200 | – | Cc1c(S(=O)(=O)Nc2ccc3nccc(N4CCN[C@H](C)C4)c3c2)sc2ccc(Cl)cc12 |
| 8.60 | – | – | – | – | – | – | – | – | – | – | 100 | – | Cc1cnc2ccc(NS(=O)(=O)c3sc4ccc(Cl)cc4c3C)cc2c1N1CCNCC1 |
| 8.50 | – | – | – | – | – | – | – | – | – | – | 80 | – | O=S(=O)(Nc1ccc2nccc(N3CCNCC3)c2c1)c1cccc2c(Cl)cccc12 |
| 8.90 | < 5.40 | 5.50 | 5.60 | < 5.90 | 5.90 | < 5.40 | < 5.30 | 8.90 | < 6.00 | < 5.00 | 1000 | – | CCc1c(S(=O)(=O)Nc2ccc3nccc(N4CCNCC4)c3c2)sc2ccc(Cl)cc12 |
| 8.40 | – | – | – | – | – | – | – | – | – | – | 200 | – | Cc1c(S(=O)(=O)Nc2ccc3nccc(N4CCNCC4)c3c2)oc2ccc(Cl)cc12 |
| 8.70 | – | – | – | – | – | – | – | – | – | – | 130 | – | Cc1c(S(=O)(=O)Nc2ccc3nccc(N4CCN5CCC[C@H]5C4)c3c2)sc2ccc(Cl)cc12 |
| 7.50 | – | – | – | – | – | – | – | – | – | – | – | – | Cc1c(S(=O)(=O)Nc2ccc3nccc(N4C[C@@H](C)NC[C@@H]4C)c3c2)sc2ccc(Cl)cc12 |
| 8.90 | – | – | – | – | – | – | – | – | – | – | 500 | – | Cc1cc(S(=O)(=O)Nc2ccc3nccc(N4CCNCC4)c3c2)c(C)cc1Cl |
| 8.70 | – | – | – | – | – | – | – | – | – | – | 130 | – | Cc1sc2c(Cl)cccc2c1S(=O)(=O)Nc1ccc2nccc(N3CCNCC3)c2c1 |
| 8.20 | – | – | – | – | – | – | – | – | – | – | 25 | – | Cc1c(S(=O)(=O)Nc2ccc3nccc(N4CCNCC4)c3c2)sc2c(Cl)cc(Cl)cc12 |
